These results are taken from ChEMBL document CHEMBL1150729, “Constituents of Paramichelia baillonii: a new antitumor germacranolide alkaloid” (1987).

Holding throughout (format): functional
A short description of assay [1]: Cytotoxicity against human Laryngeal epidermoid carcinoma cells. To be noted: read-out: ED50 (the source's name).
A short description of assay [2]: (§1) Cytotoxicity against human 9KB cells. To be noted: read-out: ED50 (the source's name).
The next assay concerns KB. Put plainly: Cytotoxicity against human KB cells. To be noted: read-out: ED50 (the source's name).
The subject of another assay is 9KB. Described as §1.

In brackets after ≈: the same amount, converted by molar mass. Activity calls are given as the source filed them. The rule behind the calls is not given here.

For the compound `C=C1C(=O)O[C@@H]2C3O[C@]3(C)CC/C=C(\C)CC[C@@H]12` (stereo not given in full), the EC50 in assay [1] was determined as 0.76 µg/mL (≈ 3.06 µM); in assay [2] it was 0.45 µg/mL (≈ 1.81 µM).

For `C/C1=C\CC[C@@]2(C)O[C@H]2[C@H]2OC(=O)[C@@H](CNC[C@@H]3C(=O)O[C@H]4[C@H]3CC/C(C)=C/CC[C@@]3(C)O[C@@H]43)[C@@H]2CC1`, the EC50 in the assay on KB came out at 0.6 µg/mL (≈ 1.17 µM).

For `O=C1c2ccccc2-c2c3c(cc4ccnc1c24)OCO3` [LIRIODENINE], the EC50 in assay [2] was found to be 1.6 µg/mL (≈ 5.81 µM).

Take `C/C1=C\CC[C@@]2(C)O[C@H]2[C@H]2OC(=O)[C@@H](C)[C@@H]2CC1`: in the assay with 9KB, the result was inactive.
